The structures appear in SMILES notation.

Format in all cases: physicochemical
The nature of data set [1]: Stability of polymorph E in competition with polymorph A (slurry in solvent, X-ray powder diffraction). The method, then: (§1) To verify the stability of polymorph E, trials were performed at the laboratory scale, by putting polymorph E in competition with compound (I) (polymorph A) and with the THF solvated form in mixtures of solvent.
Polymorph E was first put in competition with compound (I) (polymorph A) (mixture 50/50, w/w) in ethanol/THF 80/20% v/v. This stability test was performed at ambient temperature under magnetic stirring for 24 hours, then the solid was filtered, dried, then analyzed by X-ray powder diffraction. […] Similar experiments were performed in ethanol 100% at various concentrations.
Polymorph E stability also was tested as a suspension in 100% ethanol at room temperature, seeded with compound (I) (polymorph A).

Data set [2] in a line: Differential scanning calorimetry, relative stability of polymorphs A and E by the rules of Burger. As to conditions: from DSC melting point and enthalpy of fusion. A general note: DSC measures the heat that a sample takes up or gives off during a temperature scan.
Data set [3] can be described thus: Stability of polymorph E in competition with the THF solvated form (slurry in THF/ethanol). The protocol: as §1
Polymorph E was also put in competition with the solvated form of compound (I) obtained in from THF. A mixture of the THF solvated form and polymorph E (50/50, w/w) was left under stirring for 24 hours in 40V of THF/ethanol (50/50, v/v) at room temperature.

Where [4] appears, read: under the competition conditions described.

Consider `COc1ccc(Cl)c(Nc2nc3ccccc3nc2NS(=O)(=O)c2cccc(NC(=O)C(C)(C)N)c2)c1` [Polymorph E, N-(3-{[(2Z)-3-[(2-chloro-5-methoxyphenyl)amino]quinoxalin-2(1H)-ylidene]sulfamoyl}phenyl)-2-methylalaninamide], for which the “solid form found after competition” value in data set [1] (competition with polymorph A, ethanol 100%, various concentrations) is recorded as “Polymorph E was always obtained”. The “solid form found by X-ray powder diffraction after competition” value in data set [1] (mixture 50/50 w/w with polymorph A, ethanol/THF 80/20% v/v, ambient temperature, magnetic stirring, 24 hours) was “Polymorph E was obtained”. The “solid form found by X-ray powder diffraction after seeding” value in data set [1] (suspension in 100% ethanol, room temperature, seeded with polymorph A, 24 hours) is “only polymorph E”. For the same molecule, in data set [1] (setting [4]), the “relative stability versus polymorph A” value is “more stable than the polymorph A of compound (I)”. Further, the “thermodynamic stability relationship between polymorphs A and E (monotropic)” value in data set [2] was “the more stable one”. In addition, in data set [3] (mixture 50/50 w/w with THF solvated form, 40V THF/ethanol 50/50 v/v, room temperature, stirring 24 hours), the “solid form present at the end of competition” value is given as “only polymorph E was present”. For the same molecule, the “relative stability versus THF-solvated form” value in data set [3] (setting [4]) is given as “more stable than the THF-solvated form”.
